The results in this text go back to patent publication US10189957B2, “Formulation process method to produce spray dried products” (ISP INVESTMENTS LLC, priority 2007, dated 2019).

Data set [1] in a line: Dissolution test, USP apparatus II (paddles), powders in size 1 hard gelatin capsules. The format is physicochemical. The note with it: amount equivalent to 50 mg efavirenz, capsules with additional 15% croscarmellose sodium, 37° C. As for the experimental part:
A. The dissolution properties of both amorphous compositions were tested and compared to crystalline EFV. An amount equivalent to 50 mg efavirenz was analyzed. Powders were hand-filled into size 1 hard gelatin capsules (Shinogi Qualicaps) with an additional 15% croscarmellose sodium (Ac-Di-Sol®, FMC BioPolymers). USP apparatus II (paddles) (VK 7010®, Varian Inc.) was used, with a bath temperature of 37° C. and a paddle speed of 50 rpm for 60 minutes.
B. Each of the amorphous powders from Examples 1 and 2 achieved higher rate of release and maximum aqueous concentration than the crystalline form (FIG. 6, Table 2). The initial rate of release from the amorphous powders was more than 10-times higher than the crystalline form.

A short description of data set [2]: Solubility in ethyl acetate at standard laboratory conditions. It is filed as physicochemical. The note with it: about 25° C. and 1 atmosphere. The procedure:
A dispersion was prepared containing 1 ezetimibe: 1 PVP K-12 at 1% total solids in ethyl acetate at standard laboratory conditions (about 25° C. and 1 atmosphere).

In the case of `O=C1Nc2ccc(Cl)cc2[C@@](C#CC2CC2)(C(F)(F)F)O1` [crystalline EFV, efavirenz], the extent of release in data set [1] (paddle speed 50 rpm for 60 minutes) turned out to be 10%. The “rate of release, 0-15 min” value in data set [1] (paddle speed 50 rpm, 0-15 min) is given as 0.13 mg/min.

As for `O=C1[C@H](CC[C@H](O)c2ccc(F)cc2)[C@@H](c2ccc(O)cc2)N1c1ccc(F)cc1` [ezetimibe], the “solubility in ethyl acetate” value in data set [2] is given as “soluble”.
